≈ marks a conversion by molar mass, not a printed value.
Legend:
[1] = tested on: THP-1 cells; experiment: THP-1 host cell toxicity readout of the Ld InMac assay; type: cell-based; settings: Homo sapiens; host THP-1 cells; mean of n ≥ 3; read-out: THP-1 pEC50 (converted)
Description: (§1) For the identification of DDD853651/GSK3186899, which contained a trans-1,4-cyclohexyldiamine, a key strategy was to optimise the balance between potency in the intracellular Leishmania assay (L. donovani in THP-1 cells, referred to as Ld InMac assay[9]) and solubility.[10] In that case, we focused on 2 (Table 1), where the sulfonamide was required for potency but was poorly soluble. […] To this end, we examined a 4-aminopiperidine central unit with both sulfonamide and amide substituents (Table 1). […] We therefore selected 4 as a suitable start-point for further chemistry. […] We noted that either lengthening the linker to the aromatic ring, or removing it, led to a loss of activity (6 and 7 respectively).
(§2) Intramacrophage Leishmania donovani Assay

[2] = CAD kinetic aqueous solubility; type: physicochemical; settings: pH 7.4, pH7.4 phosphate buffered saline
Protocol: CAD Aqueous Solubility 11
5µl of 10mM DMSO stock solution is diluted to 100 µ l with pH7.4 phosphate buffered saline,
equilibrated for 1 hour at room temperature and filtered through Millipore MultiscreenHTS-PCF

[3] = tested on: L. donovani amastigotes; experiment: Ld InMac intramacrophage Leishmania donovani assay; type: cell-based; settings: for EC50: Leishmania donovani, L. donovani amastigotes in THP-1 cells, mean of n ≥ 3, read-out: Ld InMac pEC50 (converted); for loss of potency (less active) versus comparator compound: versus matched comparator
Description: as §1, §2

[4] = Stability in mouse liver microsomes (intrinsic clearance); type: in vitro ADME; settings: mouse liver microsomal intrinsic clearance, 0.5 μM
Protocol: Stability in Microsomes 10
Test compound (0.5 μM) was incubated with female CD1 mouse (Xenotech) liver microsomes and their action started with addition of excess NADPH (8 mg/mL 50 mM potassium phosphate buffer, pH 7.4). Immediately, at time zero, then at 3, 6, 9, 15, and 30 min, an aliquot (50 μL) of the incubation mixture was removed and mixed with acetonitrile (100 μL) to stop the reaction.
Internal standard was added to all samples, the samples centrifuged to sediment precipitated protein, and the plates then sealed prior to UPLC-MS/MS analysis using a Xevo TQs micro (Waters Corporation, USA). XLfit (IDBS, UK) was used to calculate the exponential decay and consequently the rate constant (k) from the ratio of the peak area of test compound to internal standard at each time point. The rate of intrinsic clearance (Cl i) of each test compound was then calculated using the equation Cl i (mL/min/g liver) = k × V × microsomal protein yield, where V (mL/mg protein) is the incubation volume/mg protein added and […]
microsomal protein yield is taken as 52.5 mg protein/g liver. Verapamil (0.5 μM) was used as a positive control to confirm acceptable assay performance. […]

| Compound | EC50 [1] [µM] | solubility at 1 h [2] [µM] | EC50 [3] [µM] | Cli mouse [4] [ml min^–1 g^–1] | more active than comparator compound ([3]; Ld InMac, 4 versus 3) [fold] | loss of potency (less active) versus comparator compound ([3]; Ld InMac) [fold] |
| --- | --- | --- | --- | --- | --- | --- |
| CC(C)Cc1n[nH]c2nc(N[C@H]3CC[C@H](NC(=O)Cc4ccccc4)CC3)ncc12 [Compound 3] | > 50.1 | 51 (≈ 20.7 µg/mL) | > 50.1 | – | – | – |
| CC(C)Cc1n[nH]c2nc(NC3CCN(C(=O)Cc4ccccc4)CC3)ncc12 [Compound 4] | > 50.1 | 59 (≈ 23.2 µg/mL) | 7.94 | 18 | > 10 | – |
| CC(C)Cc1n[nH]c2nc(NC3CCN(S(=O)(=O)Cc4ccccc4)CC3)ncc12 [Compound 5] | > 50.1 | 10 (≈ 4.29 µg/mL) | 12.6 | >50 | – | > 10 |
| CC(C)Cc1n[nH]c2nc(NC3CCN(C(=O)CCc4ccccc4)CC3)ncc12 [Compound 6] | > 50.1 | – | 20 | – | – | – |
| CC(C)Cc1n[nH]c2nc(NC3CCN(C(=O)c4ccccc4)CC3)ncc12 [Compound 7] | > 50.1 | 291 (≈ 110 µg/mL) | > 50.1 | 7 | – | – |
| CC(C)Cc1n[nH]c2nc(NC3CCN(C(=O)Cc4ccc(F)cc4F)CC3)ncc12 [Compound 8] | > 50.1 | 26 (≈ 11.1 µg/mL) | 1.58 | 12 | – | – |
| CC(C)Cc1n[nH]c2nc(NC3CCN(C(=O)Cc4ccc(Cl)cc4Cl)CC3)ncc12 [Compound 9] | > 50.1 | 26 (≈ 12 µg/mL) | 10 | 30 | – | – |
| CC(C)Cc1n[nH]c2nc(NC3CCN(C(=O)C(C)c4ccccc4)CC3)ncc12 (stereo not shown) [Compound 10] | > 50.1 | 140 (≈ 56.9 µg/mL) | 5.01 | – | – | – |
| CC(C)(C)Cc1n[nH]c2nc(NC3CCN(C(=O)Cc4ccc(F)cc4F)CC3)ncc12 [Compound 11] | > 50.1 | 27 (≈ 11.9 µg/mL) | > 50.1 | 22.0 | – | – |
| O=C(Cc1ccc(F)cc1F)N1CCC(Nc2ncc3c(C4CC4)n[nH]c3n2)CC1 [Compound 12] | > 50.1 | 39 (≈ 16.1 µg/mL) | 1.26 | 5.0 | – | – |
| O=C(Cc1ccc(F)cc1F)N1CCC(Nc2ncc3c(C4CCOCC4)n[nH]c3n2)CC1 [Compound 13] | > 50.1 | 78 (≈ 35.6 µg/mL) | 1 | 0.5 | – | – |
| O=C(Cc1ccc(F)cc1F)N1CCC(Nc2ncc3c(CN4CCOCC4)n[nH]c3n2)CC1 [Compound 14] | > 50.1 | – | 25.1 | <0.5 | – | – |
| O=C(Cc1ccc(F)cc1F)N1CCC(Nc2ncc3c(N4CCOCC4)n[nH]c3n2)CC1 [Compound 15] | > 50.1 | 14 (≈ 6.4 µg/mL) | 0.794 | 2 | – | – |
| CC(C)Oc1n[nH]c2nc(NC3CCN(C(=O)Cc4ccc(F)cc4F)CC3)ncc12 [Compound 16] | > 50.1 | 33 (≈ 14.2 µg/mL) | 6.31 | – | – | – |
| O=C(Cc1ccc(F)cc1F)N1CCC(Nc2ncc3c(-c4ccccc4)n[nH]c3n2)CC1 [Compound 17] | > 50.1 | < 1 | 0.316 | 7.2 | – | – |
| O=C(Cc1ccc(F)cc1F)N1CCC(Nc2ncc3c(-c4ccccn4)n[nH]c3n2)CC1 [Compound 18] | > 50.1 | 23 (≈ 10.3 µg/mL) | 0.794 | 6.7 | – | – |
| Cn1nccc1-c1n[nH]c2nc(NC3CCN(C(=O)Cc4ccc(F)cc4F)CC3)ncc12 [Compound 19] | 20 | 30 (≈ 13.6 µg/mL) | 3.16 | 3.3 | – | 10 |
| COc1ncccc1-c1n[nH]c2nc(NC3CCN(C(=O)Cc4ccc(F)cc4F)CC3)ncc12 [Compound 21] | > 50.1 | 25 (≈ 12 µg/mL) | 0.0794 | 15 | – | – |
| CC(C)Cc1n[nH]c2nc(N(C)C3CCN(C(=O)Cc4ccc(F)cc4F)CC3)ncc12 [Compound 22] | > 50.1 | – | > 50.1 | – | – | > 10 |
| COc1ccccc1-c1n[nH]c2nc(OC3CCN(C(=O)Cc4ccc(F)cc4F)CC3)ncc12 [Compound 23] | > 50.1 | – | 20 | – | – | > 10 |
| CC(C)Cc1nn(C)c2nc(NC3CCN(C(=O)Cc4ccc(F)cc4F)CC3)ncc12 [Compound 24] | > 50.1 | – | > 50.1 | – | – | > 10 |

| Compound | EC50 [1] [µM] | solubility at 1 h [2] [µM] | EC50 [3] [µM] | Cli mouse [4] [ml min^–1 g^–1] | more active than comparator compound ([3]; Ld InMac, 4 versus 3) [fold] | loss of potency (less active) versus comparator compound ([3]; Ld InMac) [fold] |
| --- | --- | --- | --- | --- | --- | --- |
| CC(C)Cc1noc2nc(NC3CCN(C(=O)Cc4ccc(F)cc4F)CC3)ncc12 [Compound 25] | > 50.1 | – | > 50.1 | – | – | > 10 |
| COc1ccccc1-c1c[nH]c2nc(NC3CCN(C(=O)Cc4ccc(F)cc4F)CC3)ncc12 [Compound 26] | > 50.1 | – | > 50.1 | – | – | > 10 |
| COc1ccccc1C(=O)c1cnc(NC2CCN(C(=O)Cc3ccc(F)cc3F)CC2)nc1N [Compound 27] | 10 | – | 6.31 | – | – | – |
| COc1ccccc1C(=O)c1cnc(NC2CCN(C(=O)Cc3ccc(F)cc3F)CC2)nc1 [Compound 28] | > 50.1 | – | 6.31 | – | – | – |
| O=C(Cc1ccc(F)cc1F)N1CCC[C@H](Nc2ncc3c(-c4ccccn4)n[nH]c3n2)C1 [Compound 29] | > 50.1 | – | 12.6 | – | – | – |
| O=C(Cc1ccc(F)cc1F)N1CCC[C@@H](Nc2ncc3c(-c4ccccn4)n[nH]c3n2)C1 [Compound 30] | > 50.1 | – | > 50.1 | – | – | – |
| COc1ccccc1-c1n[nH]c2nc(N[C@H]3CCC[C@@H](NC(=O)Cc4ccc(F)cc4F)C3)ncc12 [Compound 31] | 25.1 | – | 31.6 | – | – | – |
| COc1ccccc1-c1n[nH]c2nc(N[C@H]3CCC[C@H](NC(=O)Cc4ccc(F)cc4F)C3)ncc12 [Compound 32] | 31.6 | – | 15.8 | – | – | – |
| COc1ccccc1-c1n[nH]c2nc(NC3(C)CCN(C(=O)Cc4ccc(F)cc4F)CC3)ncc12 [Compound 33] | 39.8 | – | 3.98 | – | – | – |
| O=C(Cc1ccc(F)cc1F)N1CCC(CNc2ncc3c(-c4ccccn4)n[nH]c3n2)CC1 [Compound 34] | > 50.1 | – | > 50.1 | – | – | – |
| COc1ccccc1-c1n[nH]c2nc(NCC3CN(C(=O)Cc4ccc(F)cc4F)C3)ncc12 [Compound 35] | > 50.1 | – | > 50.1 | – | – | – |
| CC(C)(CNC(=O)Cc1ccc(F)cc1F)Nc1ncc2c(-c3ccccn3)n[nH]c2n1 [Compound 36] | > 50.1 | – | > 50.1 | – | – | – |
| COc1ccccc1-c1n[nH]c2nc(NC3CCN(S(=O)(=O)CCC(F)(F)F)CC3)ncc12 [Compound 37] | > 50.1 | < 1 | 0.2 | 14 | – | – |
| CCOC(=O)N1CCC(Nc2ncc3c(-c4ccccc4OC)n[nH]c3n2)CC1 [Compound 38] | 39.8 | 24 (≈ 9.51 µg/mL) | 0.501 | 14 | – | – |
| COc1ccccc1-c1n[nH]c2nc(NC3CCN(C(=O)OCc4ccccc4)CC3)ncc12 [Compound 39] | > 50.1 | – | 0.398 | 9 | – | – |
| COc1ccccc1-c1n[nH]c2nc(NC3CCN(C(=O)N4CCOCC4)CC3)ncc12 [Compound 40] | > 50.1 | 79 (≈ 34.6 µg/mL) | 2 | 2 | – | – |
| COc1ccccc1-c1n[nH]c2nc(NC3CCN(C(=O)Cc4ccc(F)c(F)c4)CC3)ncc12 [Compound 43] | 15.8 | 53 (≈ 25.4 µg/mL) | 0.0251 | 6.3 | – | – |
| O=C(CC1CC1)N1CCC(Nc2ncc3c(-c4ccccn4)n[nH]c3n2)CC1 [Compound 45] | > 50.1 | ≥ 392 | 5.01 | – | – | – |
| O=C(CC1CC1)N1CCC(Nc2ncc3c(N4CCOCC4)n[nH]c3n2)CC1 [Compound 46] | > 50.1 | – | 15.8 | – | – | – |
| C[C@@H]1[C@H](O)[C@@H](C)/C=C/C=C/C=C/C=C/C=C/C=C/C=C/[C@H](O[C@@H]2O[C@H](C)[C@@H](O)[C@H](N)[C@@H]2O)C[C@@H]2O[C@](O)(C[C@@H](O)C[C@@H](O)[C@H](O)CC[C@@H](O)C[C@@H](O)CC(=O)O[C@H]1C)C[C@H](O)[C@H]2C(=O)O [amphotericin B, reference compound] | – | – | 0.2 | – | – | – |
| CCCCCCCCCCCCCCCCOP(=O)([O-])OCC[N+](C)(C)C [miltefosine, reference compound] | – | – | 0.794 | – | – | – |

Source: PMC7651859, “Identification of 6-amino-1H-pyrazolo[3,4-d]pyrimidines with in vivo efficacy against visceral leishmaniasis” (RSC Medicinal Chemistry, 2020)
